Five compounds from PubChem BioAssay AID1918956 (Molecular Pharmacology Branch, DTP, NCI, 2023) can be followed below.

Values joined by “and” are separate entries in the source; they are usually repeats but may differ in a detail not shown here. Equal values may be shown once.

In the assay the test system is OVCAR-5 complex spheroids, viability. The assay is described as follows: Anticancer human tumor OVCAR-5 cell line growth inhibition.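 For all read-outs here: spheroids exposed to agents for seven days.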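 For viability, T/C: 100% = DMSO vehicle control wells viability.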 To be noted: for viability, T/C: stronger effect = lower value. Put shortly:
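Drug combinations with the LSD1 inhibitor iadademstat tested on tumor cells co-cultured as spheroids with endothelial cells and mesenchymal stem cells. Concentrations descended in half-log increments from clinical Cmax or 10 microM.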

Setting [1] is: curve of first compound, second compound 0.1 µM.
The mark [2] stands for this setting: curve of first compound, second compound 0.316 µM.
[3] abbreviates: curve of first compound, second compound 1 µM.
[4] abbreviates: curve of first compound, second compound 3.16 µM.
Where [5] appears, read: curve of first compound, second compound 10 µM.
[6] abbreviates: second compound 0.1 µM, first compound 0.00316 µM.
[7] abbreviates: second compound 0.1 µM, first compound 0.01 µM.
Setting [8] is: second compound 0.1 µM, first compound 0.0316 µM.
Where [9] appears, read: second compound 0.1 µM, first compound 0.1 µM.
The mark [10] stands for this setting: second compound 0.316 µM, first compound 0.00316 µM.
Where [11] appears, read: second compound 0.316 µM, first compound 0.01 µM.
The mark [12] stands for this setting: second compound 0.316 µM, first compound 0.0316 µM.
The mark [13] stands for this setting: second compound 0.316 µM, first compound 0.1 µM.
Where [14] appears, read: second compound 1 µM, first compound 0.00316 µM.
The mark [15] stands for this setting: second compound 1 µM, first compound 0.01 µM.
[16] abbreviates: second compound 1 µM, first compound 0.0316 µM.
[17] abbreviates: second compound 1 µM, first compound 0.1 µM.
The mark [18] stands for this setting: second compound 3.16 µM, first compound 0.00316 µM.
Where [19] appears, read: second compound 3.16 µM, first compound 0.01 µM.
[20] abbreviates: second compound 3.16 µM, first compound 0.0316 µM.
Setting [21] is: second compound 3.16 µM, first compound 0.1 µM.
The mark [22] stands for this setting: second compound 10 µM, first compound 0.00316 µM.
The mark [23] stands for this setting: second compound 10 µM, first compound 0.01 µM.
Where [24] appears, read: second compound 10 µM, first compound 0.0316 µM.
Where [25] appears, read: second compound 10 µM, first compound 0.1 µM.
The mark [26] stands for this setting: second compound 0.1 µM, first compound 0.000316 µM.
The mark [27] stands for this setting: second compound 0.1 µM, first compound 0.001 µM.
The mark [28] stands for this setting: second compound 0.316 µM, first compound 0.000316 µM.
Setting [29] is: second compound 0.316 µM, first compound 0.001 µM.
Setting [30] is: second compound 1 µM, first compound 0.000316 µM.
Setting [31] is: second compound 1 µM, first compound 0.001 µM.
[32] abbreviates: second compound 3.16 µM, first compound 0.000316 µM.
The mark [33] stands for this setting: second compound 3.16 µM, first compound 0.001 µM.
Setting [34] is: second compound 10 µM, first compound 0.000316 µM.
The mark [35] stands for this setting: second compound 10 µM, first compound 0.001 µM.

As for `Nc1ncn(C2CC(O)C(CO)O2)c(=O)n1` (stereo not given) + NC1CCC(NC2CC2c2ccccc2)CC1, the IC50 under setting [1] was greater than 1 µM; the IC50 under setting [2] is greater than 1 µM; the IC50 under setting [3] is greater than 1 µM; the IC50 under setting [4] is greater than 1 µM; the IC50 under setting [5] is greater than 1 µM. In addition, the viability, T/C is 103% under setting [6]; 104% under setting [7]; 94.4% under setting [8]; 89.5% under setting [9]; 75.5% (second compound 0.1 µM, first compound 0.316 µM); 79% (second compound 0.1 µM, first compound 1 µM). Further, the viability, T/C under setting [10] is 97.7%; the viability, T/C under setting [11] is 104%; the viability, T/C under setting [12] was 81.4%; the viability, T/C under setting [13] is 79.6%; the viability, T/C (second compound 0.316 µM, first compound 0.316 µM) was 78.4%; the viability, T/C (second compound 0.316 µM, first compound 1 µM) is 78.4%. The viability, T/C runs as follows: under setting [14], 91.8%; under setting [15], 82.3%; under setting [16], 79.6%; under setting [17], 81.3%; (second compound 1 µM, first compound 0.316 µM) 76%; (second compound 1 µM, first compound 1 µM) 73.7%. For the same compound, the viability, T/C by setting is: under setting [18], 91.6%; under setting [19], 93.3%; under setting [20], 78.2%; under setting [21], 76.8%; (second compound 3.16 µM, first compound 0.316 µM) 70.5%; (second compound 3.16 µM, first compound 1 µM) 66.6%. Moreover, the viability, T/C under setting [22] is 83.7%; the viability, T/C under setting [23] was 83.1%; the viability, T/C under setting [24] was 79.1%; the viability, T/C under setting [25] was 67.1%; the viability, T/C (second compound 10 µM, first compound 0.316 µM) is 61.9%; the viability, T/C (second compound 10 µM, first compound 1 µM) was 66%.
Consider `CC(C)c1c(-c2ccccc2)nc2c(C#N)c[nH]n2c1=O`, for which the viability, T/C by setting is: (compound 0.0316 µM) 117% and 105%; (compound 0.1 µM) 108% and 94.7%; (compound 0.316 µM) 107% and 104%; (compound 1 µM) 107% and 102%; (compound 3.16 µM) 117% and 104%; (compound 10 µM) 104% and 100%. For the same compound, where the note is “curve of compound”, the IC50 is greater than 10 µM.
`NC1CCC(NC2CC2c2ccccc2)CC1` (stereo not given): the viability, T/C is 102% [middle of 25 runs] (compound 0.1 µM); 119% and 98.5% (compound 0.316 µM). Also, the IC50 (compound alone, run of 11/29/2021) was greater than 10 µM.
`Cn1ncnc1C1c2n[nH]c(=O)c3cc(F)cc(c23)NC1c1ccc(F)cc1` (stereo not given) + NC1CCC(NC2CC2c2ccccc2)CC1: the IC50 under setting [1] is greater than 0.1 µM; the IC50 under setting [2] was greater than 0.1 µM; the 50% inhibitory concentration (IC50) under setting [3] is greater than 0.1 µM; the IC50 under setting [4] was greater than 0.1 µM; the IC50 under setting [5] was greater than 0.1 µM. The viability, T/C was 109% under setting [26]; 95.3% under setting [27]; 104% under setting [6]; 104% under setting [7]; 99.5% under setting [8]; 100% under setting [9]. The viability, T/C is, setting by setting: under setting [28], 112%; under setting [29], 98.7%; under setting [10], 98.3%; under setting [11], 96%; under setting [12], 91.9%; under setting [13], 104%. Further, the viability, T/C is, setting by setting: under setting [30], 109%; under setting [31], 96.2%; under setting [14], 95.7%; under setting [15], 99.3%; under setting [16], 99%; under setting [17], 94.3%. For the same compound, the viability, T/C reads like this: under setting [32], 97.4%; under setting [33], 95.9%; under setting [18], 87.9%; under setting [19], 91.3%; under setting [20], 80.2%; under setting [21], 91.5%. For the same compound, the viability, T/C is 86% under setting [34]; 107% under setting [35]; 81.4% under setting [22]; 79% under setting [23]; 67.6% under setting [24]; 81.3% under setting [25].
Turning to `CC(C)CC(NC(=O)CNC(=O)c1cc(Cl)ccc1Cl)B1OC(=O)CC(CC(=O)O)(C(=O)O)O1` (stereo not given) + NC1CC1c1ccc(-c2cccc(O)c2)cc1, the concentration for half-maximal inhibition (IC50) is, setting by setting: under setting [1], greater than 0.1 µM; under setting [2], greater than 0.1 µM; under setting [3], greater than 0.1 µM; under setting [4], greater than 0.1 µM; under setting [5], 0.0998 µM. Further, the viability, T/C is, setting by setting: under setting [26], 92.4%; under setting [27], 87%; under setting [6], 89.8%; under setting [7], 72.1%; under setting [8], 66.2%; under setting [9], 55%. The viability, T/C reads like this: under setting [28], 96.6%; under setting [29], 92.1%; under setting [10], 80.4%; under setting [11], 73.3%; under setting [12], 74.4%; under setting [13], 57.5%. Moreover, the viability, T/C was 98% under setting [30]; 91.6% under setting [31]; 79.3% under setting [14]; 71.1% under setting [15]; 66.8% under setting [16]; 53.6% under setting [17]. Also, the viability, T/C runs as follows: under setting [32], 79.6%; under setting [33], 78.7%; under setting [18], 83.9%; under setting [19], 65.8%; under setting [20], 64.3%; under setting [21], 51.8%. Also, the viability, T/C reads like this: under setting [34], 97.1%; under setting [35], 93.3%; under setting [22], 71.4%; under setting [23], 70.3%; under setting [24], 64.8%; under setting [25], 47%.
